Source: article PMC4896643 (Science signaling, 2016)
Entries after “also recorded” stand apart in the source; their conditions may differ.

Columns and labels:
[1] = tested on: ovariectomized mice; experiment: carotid artery reendothelialization after perivascular electric injury
[2] = tested on: primary bovine aortic endothelial cells (BAECs); experiment: eNOS activation; assay type: cell-based; settings: for eNOS / NOS activity: 15 min
[3] = tested on: ERα-SRC3 interaction; experiment: tr-FRET assay of SRC3 binding to ERα; assay type: biochemical
[4] = tested on: ovariectomized female mice; experiment: reproductive tissue and thymus effects in ovariectomized mice
[5] = tested on: ovariectomized C57BL/6 mice; experiment: gene regulation and signaling pathway activation in tissues in vivo
[6] = tested on: ERα-knockout mice; experiment: effects in ERα-knockout; settings: ERKO mice
[7] = tested on: MCF-7 cells; experiment: ChIP-Seq of ERα, ERK2, pSer5 RNA Pol II
[8] = tested on: MCF-7 cells; experiment: MCF-7 cell proliferation; settings: 6 days, WST assay
[9] = tested on: MCF-7 cells; experiment: Western blot of signaling pathway activation in MCF-7 cells
[10] = tested on: MCF-7 cells; experiment: RNA-Seq transcriptional profiling; settings: for number of genes regulated: 10 nM E2 or 1 μM PaPE-1, P<0.05, fold change >2
[11] = tested on: ovariectomized C57BL/6 mice; experiment: metabolic effects in ovariectomized mice

C[C@]12CC[C@@H]3c4ccc(O)cc4CC[C@H]3[C@@H]1CC[C@@H]2O [E2, estradiol]
uterine stimulation with ICI ([1]; plus antiestrogen ICI): blocked uterine stimulation
endothelial repair response with ICI 182,780 ([1]; plus antiestrogen ICI 182,780): fully prevented
uterine weight ([1]; same animals as reendothelialization): greatly elevated by E2
eNOS / NOS activity [2]: activated by E2
eNOS / NOS stimulation with ICI ([2]; plus antiestrogen ICI 182,780): fully attenuated by ICI
SRC3 binding to ERα-ligand complex ([3]; coactivator titration): bound with high affinity
mammary gland adiposity [4]: reduced the mammary gland adiposity
mammary gland ductal morphology [4]: elicited marked ductal growth
thymus size [4]: induced marked involution of the thymus
uterine weight [4]: effective in increasing growth of the uterus
mTOR signaling (S6 phosphorylation) in liver and skeletal muscle ([5]; injected, 2h): effective in inducing mTOR signaling
signaling pathway stimulation in reproductive tissues (uterus and mammary gland) ([5]; injected, 2h): stimulated reproductive tissues
gene expression changes in uterus ([5]; pellets, qPCR): induced gene expression changes in uterus
blood triglycerides [6]: did not decrease blood triglycerides
suppression of liver FASN and SREBP1c gene expression [6]: lost in ERKO mice
uterine growth [6]: did not stimulate uterine growth
ability to diminish body weight gain after ovariectomy ([6]; 3 weeks): lost
ERK2 recruitment [7]: caused recruitment of ERK2 to enhancer regions together with ERα
ERα recruitment to chromatin [7]: recruited to chromatin
proliferation of MCF-7 cells [8]: potently stimulated proliferation
phosphorylation of Ser118 in ERα [9]: observed
regulated genes blocked by MAPK inhibitor AZD6244 ([10]; 1 μM AZD6244 pretreatment, 4 h): ~ 23%
regulated genes blocked by mTOR pathway inhibitor PP242 ([10]; 1 μM PP242 pretreatment, 4 h): 40%
number of genes regulated ([10]; 4h): ~1500 genes
number of genes regulated ([10]; 24h): about 3000 genes
food consumption ([11]; 3 weeks): early drop in food intake
liver FASN and SREBP-1c gene expression ([11]; 3 weeks): reduced
body weight gain after ovariectomy ([11]; 3 weeks, pellets): suppressed; also recorded: reduced body weight gain
weight of fat depots ([11]; 3 weeks, perigonadal, perirenal, subcutaneous, mesenteric): decreased the weight of all of the fat depots examined
fat mass (EchoMRI) ([11]; end of 3 weeks): greatly reduced fat mass; also recorded: reduced fat mass more markedly
lean mass and water mass (EchoMRI) ([11]; end of 3 weeks): increased only by E2; also recorded: did increase lean mass and water mass
triglyceride concentrations in blood ([11]; end of 3 weeks): decreased triglyceride concentrations in blood
hepatocyte lipid content (Oil Red O) ([11]; liver, 3 weeks): decreased hepatocyte lipid content

CC/C(=C(\c1ccc(O)cc1)c1ccc(OCCN(C)C)cc1)c1ccccc1 [OH-Tam, trans-hydroxytamoxifen]
reversal of the ER-SRC3 interaction promoted by E2 [3]: reversed the ER-SRC3 interaction

CC(=O)NCCNC(=O)CCC(C)(c1ccc(O)cc1)c1ccc(O)cc1 [PaPE-4]
eNOS / NOS activity [2]: increased NOS activity
